We go through 10 molecules from ChEMBL document CHEMBL1201862, “PubChem BioAssay data set” (2004).

Test [1] in a line: Jurkat T cell cytotoxicity, dose response, cytotoxicity control for P. falciparum gametocyte viability project, luminescence (AID 1117277).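 Note: potency reflects loss of cellular ATP meaning fewer viable cells.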 The class given is functional, cell-based.
A short description of test [2]: P. falciparum late gametocyte killing, dose response, luminescence (AID 1117278).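 Note: gametocytes exposed to compound for 24 hours.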 In kind it is functional, cell-based.
A further test concerns the target Protein Tat (Human immunodeficiency virus type 1 group M subtype B (isolate HXB2)(HIV-1), UniProt P04608). The class given is functional.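 Note: tat binding to TAR RNA read out by fluorescence polarization.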
The subject of test [3] is Vero. Nature of the test: cytotoxicity of synthesized analogs in Vero cells, SAR follow-up, cytotoxicity control for West Nile virus antiviral project, cell-based, set II (AID 2402). In kind it is functional. Particulars: Chlorocebus sabaeus.
The nature of test [4]: Vero cell cytotoxicity, dose response, cytotoxicity control for Vif-APOBEC3G degradation inhibitor project, Vero cells (AID 1117358). The class given is functional. To be noted: Human immunodeficiency virus 1, Vero.
Test [5] in a line: HEp-2 cell cytotoxicity, dose response, cytotoxicity control for RSV inhibitor project, HTS (AID 2410). In kind it is functional. Particulars: human respiratory syncytial virus.
Test [6] addresses Induced myeloid leukemia cell differentiation protein Mcl-1 (Homo sapiens, UniProt Q07820). Kind of test: Mcl-1/Noxa binding inhibitor potency, dose response, biochemical, TR-FRET (AID 1417). In kind it is functional. (TR-FRET usually uses a lanthanide donor and a delayed reading to cut background.)
Test [7] relates to Vero. Nature of the test: Vero cell cytotoxicity, cytotoxicity control for flavivirus capping enzyme inhibitors (AID 588742). Particulars: Chlorocebus sabaeus. In kind it is functional.
Test [8] deals with T1, Mannose-6-phosphate isomerase (Homo sapiens, UniProt P34949).
T1 sequence (P34949 whole entry): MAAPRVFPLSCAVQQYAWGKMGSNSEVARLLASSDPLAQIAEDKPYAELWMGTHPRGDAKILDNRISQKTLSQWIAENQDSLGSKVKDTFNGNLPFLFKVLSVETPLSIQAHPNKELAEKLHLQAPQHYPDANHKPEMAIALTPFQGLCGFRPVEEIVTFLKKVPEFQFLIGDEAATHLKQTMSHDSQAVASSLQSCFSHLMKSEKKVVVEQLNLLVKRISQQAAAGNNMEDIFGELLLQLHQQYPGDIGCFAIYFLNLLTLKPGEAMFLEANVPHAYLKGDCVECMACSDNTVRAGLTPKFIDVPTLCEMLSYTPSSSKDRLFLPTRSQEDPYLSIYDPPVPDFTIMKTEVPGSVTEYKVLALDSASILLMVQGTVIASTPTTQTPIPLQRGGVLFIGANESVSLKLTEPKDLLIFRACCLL
Kind of test: inhibitors of human PMI, primary screen, biochemical, fluorescence intensity, coupled assay (AID 1209).

Test [9] can be described thus: cytotoxicity toward NIH3T3 fibroblasts, dose response, counter-screen, cell-based, ATP luminescence, mouse fibroblasts (AID 2010).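 Note: cells exposed to compound for about 90 hours before reading.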 In kind it is functional.
Test [10] in a line: inhibitors of intracellular T. cruzi replication, confirmation, NIH3T3 host cells, beta-gal luminescence (AID 2044).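 Note: intracellular parasites grown in NIH/3T3 mouse fibroblasts as host cells; luminescent beta-galactosidase reporter signal from transgenic T. cruzi replicating inside host cells; inhibitors lower the luminescence signal.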 In kind it is functional, cell-based.
Another test concerns the target Genome polyprotein (dengue virus type 2, UniProt P29990). Kind of test: Dengue-2 NS5 methyltransferase inhibitors, primary screen, biochemical, confirmation dose response (AID 588689). In kind it is functional.
Test [11] concerns the target T1, Mannose-6-phosphate isomerase. Kind of test: human PMI inhibitors, high substrate, primary screen, biochemical, fluorescence intensity, high mannose 6-phosphate (AID 1220).
Test [12] can be described thus: HeLa cell cytotoxicity, dose response, cytotoxicity control for MgcRacGAP inhibitor project (AID 624300). In kind it is functional.
In test [13] the target is Sphingosine 1-phosphate receptor 2 (Homo sapiens, UniProt O95136). Nature of the test: Dose Response Cell Based Assay for Agonists of the S1P2 Receptor. [Related pubchem assays: 729, 736, 843 ]. In kind it is functional.
Sequence of Sphingosine 1-phosphate receptor 2 (O95136 whole entry): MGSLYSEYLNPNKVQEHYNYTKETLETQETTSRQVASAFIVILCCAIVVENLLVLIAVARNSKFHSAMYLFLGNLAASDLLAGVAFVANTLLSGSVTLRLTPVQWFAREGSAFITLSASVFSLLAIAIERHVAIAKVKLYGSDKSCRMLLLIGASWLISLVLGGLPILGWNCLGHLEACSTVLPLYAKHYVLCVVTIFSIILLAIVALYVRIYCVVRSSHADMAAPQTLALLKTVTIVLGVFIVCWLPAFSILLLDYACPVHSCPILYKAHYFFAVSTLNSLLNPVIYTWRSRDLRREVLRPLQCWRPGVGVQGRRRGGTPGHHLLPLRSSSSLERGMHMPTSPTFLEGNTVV
For the next test, the target named is 14-3-3 protein gamma (Homo sapiens, UniProt P61981). Nature of the test: modulators of 14-3-3 gamma client binding – dose response (AID 711). In kind it is functional.
Sequence of 14-3-3 protein gamma (P61981 whole entry): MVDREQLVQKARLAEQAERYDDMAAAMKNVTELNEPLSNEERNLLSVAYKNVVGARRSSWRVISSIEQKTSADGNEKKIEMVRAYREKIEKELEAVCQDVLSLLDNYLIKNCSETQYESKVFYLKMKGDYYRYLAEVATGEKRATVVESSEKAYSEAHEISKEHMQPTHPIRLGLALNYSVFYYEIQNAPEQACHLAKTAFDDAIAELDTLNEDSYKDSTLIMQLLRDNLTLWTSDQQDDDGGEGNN
Test [14] can be described thus: cytotoxicity in OVCAR8 ovarian cancer cells, dose response, PAX8 project, cell-based, plate reader, dry powder samples (AID 743197). In kind it is functional. Particulars: OVCAR-8.
Test [15] in a line: HEK293T cytotoxicity, dose response, cytotoxicity control for miR-122 modulator project, cell-based, inhibitor set, cherry-pick, set 2 (AID 720697). The class given is functional.
The nature of test [16]: miR-122 activators in hepatoma reporter cells, dose response, cell-based, Huh7 psiCHECK-miR122, Renilla luciferase, cherry-picked (AID 651956).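 Note: huh7 hepatoma cells stably carrying a psiCHECK-2 miR-122 sensor plasmid; renilla luciferase signal reporting endogenous miR-122 activity after 48 h compound exposure.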 In kind it is functional.
The nature of test [17]: HEK293T cytotoxicity, dose response, cytotoxicity control for miR-122 modulator project, cell-based, activator set, cherry-pick (AID 720690).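 Note: HEK293T human cells scored for general mammalian cytotoxicity.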 The class given is functional.
A short description of test [18]: A549 cell cytotoxicity, dose response, cytotoxicity control, 24 h, CellTiter-Glo luminescence, cherry-picks (AID 1053115). The class given is functional, cell-based. To be noted: A549, 24 h. (ATP-based viability assays read luminescence as a measure of living cells.)
The target of another test is Paired box protein Pax-8 (Homo sapiens, UniProt Q06710). Nature of the test: inhibitors of PAX8-driven TPO luciferase reporter, dose response, RMG-I cells, cherry-pick (AID 687027).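 Note: luciferase reporter driven by Pax8 target thyroperoxidase promoter measured by SteadyGlo luminescence.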 In kind it is functional, cell-based. Background: Reporter assays use an easily measured gene product as a stand-in for the process of interest.
Sequence of Paired box protein Pax-8 (Q06710 whole entry): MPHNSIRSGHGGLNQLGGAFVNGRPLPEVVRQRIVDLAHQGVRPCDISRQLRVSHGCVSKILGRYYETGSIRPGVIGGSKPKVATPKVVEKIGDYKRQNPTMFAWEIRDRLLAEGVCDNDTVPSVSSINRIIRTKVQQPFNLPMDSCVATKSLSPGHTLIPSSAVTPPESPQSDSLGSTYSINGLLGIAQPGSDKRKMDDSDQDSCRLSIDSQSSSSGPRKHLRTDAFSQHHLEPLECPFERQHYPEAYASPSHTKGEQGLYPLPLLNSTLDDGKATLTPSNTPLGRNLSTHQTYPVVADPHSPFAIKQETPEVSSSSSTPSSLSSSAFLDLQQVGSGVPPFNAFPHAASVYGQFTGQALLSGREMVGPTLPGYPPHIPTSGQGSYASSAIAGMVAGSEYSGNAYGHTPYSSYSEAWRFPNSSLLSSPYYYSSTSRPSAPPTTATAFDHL
A short description of test [19]: A549 cell cytotoxicity, dose response, CellTiter-Glo luminescence, dry powder, set 17 (AID 1117284). The class given is functional, cell-based.
The nature of test [20]: P. falciparum Dd2 growth inhibitors, dose response, SYBR Green, dry powder samples (AID 1159566).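 Note: potency for growth inhibition with lower SYBR green DNA signal.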 In kind it is functional, cell-based.
The nature of test [21]: Plasmodium falciparum Dd2 Sybr green parasite growth Measured in Cell-Based and Microorganism Combination System Using Plate Reader - 2153-01_Inhibitor_Dose_DryPowder_Activity_Set3. In kind it is functional.
A short description of test [22]: P. falciparum ATP4 D1247Y mutant growth inhibitors, dose response, NITD609-resistant line, SYBR Green, dry powder (AID 1159571).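 Note: parasites synchronized at ring stage by sorbitol before testing.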 In kind it is functional, cell-based.
Test [23] can be described thus: HepG2 cell cytotoxicity, dose response, cytotoxicity control, plate reader, dry powder samples (AID 1159569).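 Note: inhibitor potency with signal falling toward the positive control level.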 In kind it is functional, cell-based.
A short description of test [24]: P. falciparum 3D7-ScDHODH growth inhibitors, dose response, SYBR Green, dry powder samples (AID 1159570).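 Note: parasite growth measured after 72 hours of compound exposure.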 The class given is functional, cell-based.
Test [25] can be described thus: P. falciparum Dd2 growth inhibitors, dose response, SYBR Green, dry powder samples, set 9 (AID 1159568). In kind it is functional, cell-based.
Test [26] can be described thus: P. falciparum Dd2 growth inhibitors, dose response, SYBR Green, cherry-picked samples (AID 1159567). In kind it is functional, cell-based.
Test [27] in a line: SNU-C1 cell viability reduction, dose response, CellTiter-Glo luminescence (AID 1117323). In kind it is functional, cell-based.
Test [28] in a line: cytotoxicity toward HCT116 cells – cell-based, CellTiter-Glo luminescence, IC50, dose response (AID 1117332). The class given is functional. Particulars: HCT-116.
The nature of test [29]: RKO cell viability reduction, dose response, CellTiter-Glo luminescence (AID 1117322). The class given is functional.
Test [30] can be described thus: cytotoxicity toward Colo320 cells – cell-based, CellTiter-Glo luminescence, IC50, dose response (AID 1117334). The class given is functional. To be noted: COLO 320.
Test [31] can be described thus: HeLa 4N DNA content increase, dose response, cell-based, IC50 (AID 1117351). The class given is functional.
A short description of test [32]: HeLa 2N DNA content increase, dose response, cell-based, IC50 (AID 1117349). The class given is functional.
The target in a further test is Cytochrome P450 2C9 (Homo sapiens, UniProt P11712).
Sequence of Cytochrome P450 2C9 (P11712 whole entry): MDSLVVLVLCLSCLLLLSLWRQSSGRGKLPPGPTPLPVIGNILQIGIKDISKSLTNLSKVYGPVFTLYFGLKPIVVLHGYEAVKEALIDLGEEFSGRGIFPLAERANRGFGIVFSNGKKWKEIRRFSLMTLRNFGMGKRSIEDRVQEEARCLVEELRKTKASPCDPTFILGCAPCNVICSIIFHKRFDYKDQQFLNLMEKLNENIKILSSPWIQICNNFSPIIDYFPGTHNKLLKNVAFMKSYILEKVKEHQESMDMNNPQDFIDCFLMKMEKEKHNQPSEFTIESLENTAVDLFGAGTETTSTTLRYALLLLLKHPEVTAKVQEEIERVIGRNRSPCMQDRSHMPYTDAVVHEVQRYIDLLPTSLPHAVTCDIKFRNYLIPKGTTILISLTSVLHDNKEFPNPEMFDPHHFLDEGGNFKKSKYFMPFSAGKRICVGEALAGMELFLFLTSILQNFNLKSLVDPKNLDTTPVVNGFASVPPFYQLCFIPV
Test [33] in a line: half-maximal inhibitory concentration for glucagon-like peptide-1 release, STC-1 cell line, dose-response (AID 1117345). The class given is functional, cell-based.
Test [34] can be described thus: cytotoxicity toward HT-29 cells – cell-based, CellTiter-Glo luminescence, IC50, dose response (AID 1117330). In kind it is functional.
The nature of test [35]: Glucagon-like peptide 1 release potency, NCI-H716 cell line, dose-response, half-maximal inhibitory concentration (AID 1117344). In kind it is functional, cell-based.
Test [36] addresses Eukaryotic translation initiation factor 4E (Mus musculus, UniProt P63073). Kind of test: eIF4E–eIF4G protein interaction inhibitors, dose response, biochemical, TR-FRET (AID 855).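 Note: potency for disrupting eIF4E binding to eIF4GI seen as loss of FRET.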 In kind it is functional.
A short description of test [37]: Concentration-dependent survival of SW480 colon cancer line, luminescence detection with CellTiter-Glo, half-maximal inhibitory concentration (AID 1117338). In kind it is functional.
In the next test the target is T2, Cytochrome P450 1A2 (Homo sapiens, UniProt P05177).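 Note: PubChem cytochrome P450 panel assay, CYP1A2 panel member.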
T2 sequence (P05177 whole entry): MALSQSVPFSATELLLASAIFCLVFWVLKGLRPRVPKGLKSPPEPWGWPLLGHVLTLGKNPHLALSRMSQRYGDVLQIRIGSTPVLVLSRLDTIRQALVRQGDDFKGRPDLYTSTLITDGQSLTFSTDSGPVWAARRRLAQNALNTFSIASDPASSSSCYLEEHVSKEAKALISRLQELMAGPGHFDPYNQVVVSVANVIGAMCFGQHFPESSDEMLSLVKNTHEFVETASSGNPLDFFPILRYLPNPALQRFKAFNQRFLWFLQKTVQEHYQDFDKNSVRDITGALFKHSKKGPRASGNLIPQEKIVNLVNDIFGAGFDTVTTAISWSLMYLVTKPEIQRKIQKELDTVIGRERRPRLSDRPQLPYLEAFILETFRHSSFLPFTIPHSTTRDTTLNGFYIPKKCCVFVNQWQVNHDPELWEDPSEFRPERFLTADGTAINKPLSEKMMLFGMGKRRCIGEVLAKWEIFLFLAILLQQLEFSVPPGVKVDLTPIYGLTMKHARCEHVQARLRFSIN

A short description of test [38]: CellTiter-Glo luminescent dose response of DLD-1 viability loss (AID 1117352). The class given is functional.

As a reminder, the IC50 is the concentration at which inhibition is half-maximal. One may read the CC50 as the concentration giving 50% cytotoxicity. The EC50 is the concentration giving half of the maximal effect. Broadly, the AC50 is the midpoint of the concentration-response curve, whichever way the signal moves.

“And” between values parts separate entries of the source, which are not always exact repeats. Identical values can stand only once. The source made the active and inactive calls.

Sequence of Induced myeloid leukemia cell differentiation protein Mcl-1 (Q07820 whole entry): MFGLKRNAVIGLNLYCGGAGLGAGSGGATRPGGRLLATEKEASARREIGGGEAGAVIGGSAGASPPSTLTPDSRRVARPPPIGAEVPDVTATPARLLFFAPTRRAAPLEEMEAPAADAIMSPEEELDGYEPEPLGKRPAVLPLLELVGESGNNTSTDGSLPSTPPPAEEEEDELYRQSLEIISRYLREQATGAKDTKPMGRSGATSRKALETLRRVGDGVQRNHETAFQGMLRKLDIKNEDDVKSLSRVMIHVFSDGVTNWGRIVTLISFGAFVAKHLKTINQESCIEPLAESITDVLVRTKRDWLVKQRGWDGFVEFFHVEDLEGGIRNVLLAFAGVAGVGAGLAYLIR
Sequence of Genome polyprotein (P29990 2492-3391 limits assumed): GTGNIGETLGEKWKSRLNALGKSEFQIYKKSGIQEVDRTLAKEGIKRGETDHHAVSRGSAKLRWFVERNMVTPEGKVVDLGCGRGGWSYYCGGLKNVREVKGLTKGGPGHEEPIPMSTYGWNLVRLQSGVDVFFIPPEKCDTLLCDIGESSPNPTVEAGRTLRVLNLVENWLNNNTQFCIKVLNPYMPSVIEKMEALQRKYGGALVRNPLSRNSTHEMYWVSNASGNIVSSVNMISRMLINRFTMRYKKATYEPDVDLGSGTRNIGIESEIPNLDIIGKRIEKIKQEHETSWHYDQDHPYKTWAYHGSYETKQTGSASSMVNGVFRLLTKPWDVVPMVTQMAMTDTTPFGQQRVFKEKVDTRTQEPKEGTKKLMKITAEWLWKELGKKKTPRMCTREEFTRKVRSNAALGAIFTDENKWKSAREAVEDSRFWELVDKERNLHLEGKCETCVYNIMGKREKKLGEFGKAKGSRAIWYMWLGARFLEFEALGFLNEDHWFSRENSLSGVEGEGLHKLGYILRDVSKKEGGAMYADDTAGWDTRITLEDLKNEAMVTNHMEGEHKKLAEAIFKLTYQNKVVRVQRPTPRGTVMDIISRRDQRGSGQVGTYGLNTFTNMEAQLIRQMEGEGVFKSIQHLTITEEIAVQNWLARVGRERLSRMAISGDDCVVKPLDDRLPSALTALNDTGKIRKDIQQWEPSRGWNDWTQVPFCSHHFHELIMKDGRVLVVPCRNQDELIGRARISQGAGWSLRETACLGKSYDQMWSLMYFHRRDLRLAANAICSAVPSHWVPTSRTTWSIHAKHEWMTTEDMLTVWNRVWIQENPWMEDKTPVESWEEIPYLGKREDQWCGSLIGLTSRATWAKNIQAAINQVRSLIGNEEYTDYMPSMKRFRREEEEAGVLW
Sequence of Protein Tat (P04608 whole entry): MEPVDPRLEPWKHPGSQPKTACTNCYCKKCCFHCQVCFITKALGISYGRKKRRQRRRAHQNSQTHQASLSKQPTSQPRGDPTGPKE
Sequence of Eukaryotic translation initiation factor 4E (P63073 whole entry): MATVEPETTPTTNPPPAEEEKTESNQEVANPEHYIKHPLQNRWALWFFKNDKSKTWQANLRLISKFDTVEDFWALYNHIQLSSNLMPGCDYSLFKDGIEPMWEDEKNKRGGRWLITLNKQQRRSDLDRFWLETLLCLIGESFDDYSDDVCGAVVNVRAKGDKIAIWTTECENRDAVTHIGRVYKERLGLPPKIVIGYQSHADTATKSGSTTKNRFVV

Take `COc1ccc(C2CC(c3cccs3)=NN2C(=O)CSc2nnc(N)s2)cc1OC` (stereo not given): the IC50 was > 83.3 µM (inactive) in test [1] and > 109 µM (inactive) in [2].

As for `CCOc1ccc(-n2c(Cc3cc(O)nc(O)n3)nnc2SCC(=O)NC2CCCC2)cc1`, on Protein Tat, the IC50 was > 100 µM (active).

For `O=C(CSc1nc2cccc(F)c2c(=O)n1-c1ccccc1)Nc1ccc2c(c1)CCC2`, the CC50 in the test on Vero [3] was > 200 µM (active).

With `Cn1nc(C(F)(F)F)c(C#N)c1N1CCN(c2ccc(F)cc2)CC1`, the CC50 is > 40 µM (active) in test [4] and 8.85 µM (active) in [5].

For the molecule `CCOc1c(Cl)cc(CNc2ccc(N3CCCC3)cc2)cc1OC`, the IC50 in [6] is 2.69 µM (active); in test [8], 3.93 µM (active); at Genome polyprotein, 93.2 µM (active); in [11], 37.7 µM (active). The results for the CC50 (in the test on Vero [7]; in test [12]) were 27.8 µM (active) and 100 µM (active), respectively. The figures for the EC50 in [9] and in test [10] were > 60 µM (not active) and 4.98 µM (active), respectively.

Take `COCCNC(=O)CN1CCN(C(c2ccccc2)c2ccccc2)CC1`: the EC50 in test [13] is given as > 50 µM (not active).

For `O=C(Cn1cc2c(n1)CCCC2)NCc1ccccn1`, the IC50 at 14-3-3 protein gamma was 25.6 µM (active).

As to `C[C@H](O)C#Cc1ccc2c(c1)O[C@@H](CN(C)Cc1ccc(-c3ccccc3)cc1)[C@@H](C)CN([C@@H](C)CO)S2(=O)=O`, the AC50 in [14] is > 70 µM (inactive); in [15], < 195 nM (active); in [16], 14.7 µM (active); in test [17], 11.2 µM (active); in [18], > 60 µM (inactive); on Paired box protein Pax-8, 11.5 µM (active). Further, the AC50 in test [19] was 22.6 µM (active).

As for `COc1ccccc1CN1C[C@@H](C)[C@H](OC)CN(C)C(=O)c2ccc(NC(=O)Nc3ccccc3OC)cc2OC[C@H]1C`, the AC50 in test [20] was 18.5 nM (active); in [21], 189 nM (active); in test [22], 163 nM (active); in test [23], > 100 µM (inactive); in test [24] it was 2.1 µM (active); in [25] it was 116 nM (active). In [26], the AC50 was < 300 nM (active).

As to `Cc1cc2c(C(C)C)c(O)c(O)c(C=O)c2c(O)c1-c1c(C)cc2c(C(C)C)c(O)c(O)c(C=O)c2c1O` [GOSSYPOL], the IC50 in test [27] is 354 nM (active); in test [28], 784 nM (active); in test [29], 916 nM (active); in test [6] it was 1.52 µM (active); in test [30], 1.38 µM (active); in [31] it was > 10 µM (inactive). The IC50 in test [32] was > 10 µM (inactive); in [33], > 40 µM (inactive); in test [34] it was 1.42 µM (active); in test [35], 23.4 µM (inactive); in test [36], > 64 µM (inactive); in test [37], 956 nM (active). In test [38], the IC50 was 834 nM (active). Further, the concentration at half-maximal activity (AC50) is 31.6 µM (inconclusive) and 15.8 µM (inconclusive) at Cytochrome P450 2C9; 15.8 µM (inconclusive) and 39.8 µM (inconclusive) on Cytochrome P450 1A2.
